Data: patent US10670605B2, “Cysteine reactive probes and uses thereof” (The Scripps Research Institute, priority 2015, dated 2020)
Blank lines part the entries; values can stand above or below the molecule they belong to.

Experiments:
Test in all cases: Competitive isoTOP-ABPP, cell lysates
Type in all cases: binding
PDE12 C108 (Q6L8Q7) = target: T1, PDE12 C108 (Q6L8Q7) (Homo sapiens, UniProt Q6L8Q7); conditions: for R value (DMSO/fragment) / isoTOP-ABPP ratio, Q6L8Q7_C108: 500 μM; for isoTOP-ABPP ratio (reactivity profile), Q6L8Q7_C108: 500 μm in-vitro ramos_231
T1 sequence (Q6L8Q7 43-609): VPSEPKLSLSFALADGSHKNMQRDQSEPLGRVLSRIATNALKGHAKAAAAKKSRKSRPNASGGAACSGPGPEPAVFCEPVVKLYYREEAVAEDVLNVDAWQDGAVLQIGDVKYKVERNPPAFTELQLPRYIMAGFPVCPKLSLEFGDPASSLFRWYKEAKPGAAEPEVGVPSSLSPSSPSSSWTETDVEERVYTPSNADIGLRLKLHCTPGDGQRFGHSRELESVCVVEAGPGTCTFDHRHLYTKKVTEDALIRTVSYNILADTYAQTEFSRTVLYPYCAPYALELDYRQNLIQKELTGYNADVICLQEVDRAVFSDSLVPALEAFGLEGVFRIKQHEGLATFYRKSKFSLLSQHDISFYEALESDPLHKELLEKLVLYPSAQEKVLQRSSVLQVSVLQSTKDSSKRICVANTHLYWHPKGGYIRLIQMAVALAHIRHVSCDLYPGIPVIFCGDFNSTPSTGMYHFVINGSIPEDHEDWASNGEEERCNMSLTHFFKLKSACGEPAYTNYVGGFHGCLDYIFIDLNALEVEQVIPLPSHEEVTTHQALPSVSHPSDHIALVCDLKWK

IDH2 C308 (P48735) = target: T2, IDH2 C308 (P48735) (Homo sapiens, UniProt P48735); conditions: for R value (DMSO/fragment): in vitro, MDA-MB-231; for isoTOP-ABPP ratio, P48735_C308: invitro, 231; for isoTOP-ABPP ratio (reactivity profile), P48735_C308: 500 μm in-vitro ramos_231
T2 sequence (P48735 40-452): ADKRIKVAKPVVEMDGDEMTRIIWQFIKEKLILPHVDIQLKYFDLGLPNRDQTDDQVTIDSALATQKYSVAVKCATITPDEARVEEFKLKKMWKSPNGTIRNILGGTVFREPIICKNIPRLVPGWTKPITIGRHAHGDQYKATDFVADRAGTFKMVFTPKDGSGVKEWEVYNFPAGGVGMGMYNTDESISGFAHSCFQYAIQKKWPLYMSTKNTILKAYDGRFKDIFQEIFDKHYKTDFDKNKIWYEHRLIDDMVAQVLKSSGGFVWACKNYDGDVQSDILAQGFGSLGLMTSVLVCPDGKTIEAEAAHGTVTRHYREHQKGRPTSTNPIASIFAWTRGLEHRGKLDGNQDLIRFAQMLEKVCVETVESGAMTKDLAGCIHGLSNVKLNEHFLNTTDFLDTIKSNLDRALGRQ

UBE2L3 C86 (P68036) = UBE2L3 C86 (P68036) (Homo sapiens, UniProt P68036)
MGMT C150 (P16455) = target: T3, MGMT C150 (P16455) (Homo sapiens, UniProt P16455); conditions: for isoTOP-ABPP ratio (reactivity profile), P16455_C150: 500 μm in-vitro ramos
T3 sequence (P16455 1-207): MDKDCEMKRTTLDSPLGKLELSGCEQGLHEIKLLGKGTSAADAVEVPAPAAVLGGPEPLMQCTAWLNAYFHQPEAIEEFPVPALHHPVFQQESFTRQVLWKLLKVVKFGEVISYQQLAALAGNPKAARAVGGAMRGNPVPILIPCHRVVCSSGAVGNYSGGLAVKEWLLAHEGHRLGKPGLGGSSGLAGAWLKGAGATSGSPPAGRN

IRF4 C194 (Q15306) = target: T4, IRF4 C194 (Q15306) (Homo sapiens, UniProt Q15306); conditions: for isoTOP-ABPP ratio (reactivity profile), Q15306_C194: 500 μm in-vitro ramos
T4 sequence (Q15306 1-451): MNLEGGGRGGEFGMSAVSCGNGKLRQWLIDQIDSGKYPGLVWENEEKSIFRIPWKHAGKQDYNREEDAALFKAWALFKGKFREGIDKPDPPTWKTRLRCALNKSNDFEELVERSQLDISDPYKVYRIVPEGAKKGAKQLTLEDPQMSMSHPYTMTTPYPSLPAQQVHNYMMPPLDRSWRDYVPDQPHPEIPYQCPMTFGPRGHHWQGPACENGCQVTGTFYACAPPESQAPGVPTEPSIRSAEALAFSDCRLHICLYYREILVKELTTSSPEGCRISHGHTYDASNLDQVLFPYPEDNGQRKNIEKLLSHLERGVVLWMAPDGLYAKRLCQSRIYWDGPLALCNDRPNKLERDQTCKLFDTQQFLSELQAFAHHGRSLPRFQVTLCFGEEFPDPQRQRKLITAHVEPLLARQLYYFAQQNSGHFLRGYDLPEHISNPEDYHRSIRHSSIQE

Compound: COc1ccc2c(c1)CCCN2C(=O)CCl [compound 2]
R value (DMSO/fragment) (IDH2 C308 (P48735); 500 μM): 1.4
R value (DMSO/fragment) (PDE12 C108 (Q6L8Q7); invitro, ramos): 5.1
R value (DMSO/fragment) (UBE2L3 C86 (P68036); 500 μM, in vitro, MDA-MB-231): 2.8
R value (DMSO/fragment) (UBE2L3 C86 (P68036); 500 μM, invitro, ramos): 2.5
R value (DMSO/fragment) (MGMT C150 (P16455); 500 μM, invitro, ramos): 20.0

Compound: O=C(CCl)Nc1cc(C(F)(F)F)cc(C(F)(F)F)c1 [compound 3]
R value (DMSO/fragment) (IDH2 C308 (P48735); 500 μM): 2.2
R value (DMSO/fragment) (PDE12 C108 (Q6L8Q7); in vitro, MDA-MB-231): 3.6
R value (DMSO/fragment) (PDE12 C108 (Q6L8Q7); invitro, ramos): 1.8
R value (DMSO/fragment) (IRF4 C194 (Q15306); 500 μM, invitro, ramos): 20.0
R value (DMSO/fragment) (UBE2L3 C86 (P68036); 500 μM, in vitro, MDA-MB-231): 1.2
R value (DMSO/fragment) (UBE2L3 C86 (P68036); 500 μM, invitro, ramos): 3.0
R value (DMSO/fragment) (MGMT C150 (P16455); 500 μM, invitro, ramos): 17.1

Compound: COc1ccc(C2CC(c3cccs3)=NN2C(=O)CCl)cc1 (stereo not shown) [compound 4]
R value (DMSO/fragment) (IDH2 C308 (P48735); 250 μM): 0.7
R value (DMSO/fragment) (UBE2L3 C86 (P68036); 250 μM, in vitro, MDA-MB-231): 1.2
R value (DMSO/fragment) (MGMT C150 (P16455); 250 μM, in vitro, Ramos): 6.9

Compound: C=CC(=O)N(c1ccccc1)c1ccc(Br)cc1 [compound 5]
isoTOP-ABPP ratio, P48735_C308 (IDH2 C308 (P48735); 500 μM): 0.8
isoTOP-ABPP ratio, Q15306_C194 (IRF4 C194 (Q15306); 500 μM, invitro, ramos): 2.2
isoTOP-ABPP ratio, P68036_C86 (UBE2L3 C86 (P68036); 500 μM, invitro, ramos): 4.8
isoTOP-ABPP ratio, P16455_C150 (MGMT C150 (P16455); 500 μM, invitro, ramos): 9.6

Compound: CNS(=O)(=O)C=Cc1ccc2c(ccn2Cc2ccccc2)c1 [compound 6]
isoTOP-ABPP ratio, P68036_C86 (UBE2L3 C86 (P68036); 500 μM, invitro, 231): 1.8

Compound: O=C(CCl)N1CCC(C(O)(c2ccccc2)c2ccccc2)CC1 [compound 20]
isoTOP-ABPP ratio (reactivity profile), P48735_C308 (IDH2 C308 (P48735)): 0.5
isoTOP-ABPP ratio (reactivity profile), Q6L8Q7_C108 (PDE12 C108 (Q6L8Q7)): 1.6
isoTOP-ABPP ratio (reactivity profile), Q15306_C194 (IRF4 C194 (Q15306)): 3.0
isoTOP-ABPP ratio (reactivity profile), P68036_C86 (UBE2L3 C86 (P68036); 500 μm in-vitro ramos): 1.2
isoTOP-ABPP ratio (reactivity profile), P68036_C86 (UBE2L3 C86 (P68036); 500 μm in-vitro ramos_231): 1.1
isoTOP-ABPP ratio (reactivity profile), P16455_C150 (MGMT C150 (P16455)): 18.3

Compound: O=C(CCl)N1CCOCC1 [compound 22]
isoTOP-ABPP ratio (reactivity profile), Q15306_C194 (IRF4 C194 (Q15306)): 1.1
isoTOP-ABPP ratio (reactivity profile), P68036_C86 (UBE2L3 C86 (P68036); 500 μm in-vitro ramos): 0.8
isoTOP-ABPP ratio (reactivity profile), P16455_C150 (MGMT C150 (P16455)): 2.9

Now from value to molecule:

isoTOP-ABPP reactivity profile ratio, Q6L8Q7_C108 (PDE12 C108 (Q6L8Q7); 500 μm, in-vitro_ramos_231): 0.8
Compound: O=C(CCl)NC1C(O)OC(CO)C(O)C1O (mixture of isomers) [compound 44]

isoTOP-ABPP ratio, P48735_C308 (IDH2 C308 (P48735); 500 μM): 1.1
isoTOP-ABPP ratio, Q15306_C194 (IRF4 C194 (Q15306); 500 μM, invitro, ramos): 2.5
isoTOP-ABPP ratio, P68036_C86 (UBE2L3 C86 (P68036); 500 μM, invitro, 231): 1.1
isoTOP-ABPP ratio, P68036_C86 (UBE2L3 C86 (P68036); 500 μM, invitro, ramos): 0.4
isoTOP-ABPP ratio, P16455_C150 (MGMT C150 (P16455); 500 μM, invitro, ramos): 20.0
Compound: O=C(CCl)N1CCN(S(=O)(=O)c2ccccc2F)CC1 [compound 10]

isoTOP-ABPP ratio, P48735_C308 (IDH2 C308 (P48735); 500 μM): 1.1
isoTOP-ABPP ratio, Q6L8Q7_C108 (PDE12 C108 (Q6L8Q7); invitro, 231): 4.2
isoTOP-ABPP ratio, Q15306_C194 (IRF4 C194 (Q15306); 500 μM, invitro, ramos): 4.3
isoTOP-ABPP ratio, P68036_C86 (UBE2L3 C86 (P68036); 500 μM, invitro, ramos): 1.0
isoTOP-ABPP ratio, P16455_C150 (MGMT C150 (P16455); 500 μM, invitro, ramos): 20.0
Compound: Cn1cc(S(=O)(=O)N2CCOCC2)cc1C(=O)NC(=O)CCl [compound 11]

isoTOP-ABPP ratio, P48735_C308 (IDH2 C308 (P48735); 500 μM): 1.7
isoTOP-ABPP ratio, Q6L8Q7_C108 (PDE12 C108 (Q6L8Q7); invitro, ramos): 1.5
isoTOP-ABPP ratio, Q15306_C194 (IRF4 C194 (Q15306); 500 μM, invitro, ramos): 3.7
isoTOP-ABPP ratio, P16455_C150 (MGMT C150 (P16455); 500 μM, invitro, ramos): 20.0
Compound: O=C(CCl)NC(=O)NC12CC3CC(CC(C3)C1)C2 [compound 12]

isoTOP-ABPP ratio, P48735_C308 (IDH2 C308 (P48735); 500 μM): 1.1
isoTOP-ABPP ratio, Q6L8Q7_C108 (PDE12 C108 (Q6L8Q7); invitro, ramos): 1.0
isoTOP-ABPP ratio, Q15306_C194 (IRF4 C194 (Q15306); 500 μM, invitro, ramos): 1.1
isoTOP-ABPP ratio, P68036_C86 (UBE2L3 C86 (P68036); 500 μM, invitro, 231): 1.1
isoTOP-ABPP ratio, P68036_C86 (UBE2L3 C86 (P68036); 500 μM, invitro, ramos): 0.8
isoTOP-ABPP ratio, P16455_C150 (MGMT C150 (P16455); 500 μM, invitro, ramos): 4.2
Compound: O=C(CCl)NCCc1c[nH]c2ccccc12 [compound 13]

isoTOP-ABPP ratio, Q6L8Q7_C108 (PDE12 C108 (Q6L8Q7); invitro, 231): 1.1
isoTOP-ABPP ratio (reactivity profile), Q15306_C194 (IRF4 C194 (Q15306)): 2.2
isoTOP-ABPP ratio (reactivity profile), P68036_C86 (UBE2L3 C86 (P68036); 500 μm in-vitro ramos): 1.3
isoTOP-ABPP ratio (reactivity profile), P16455_C150 (MGMT C150 (P16455)): 1.9
Compound: C=CC(=O)N(Cc1cccnc1)c1ccc(Oc2ccccc2)c(C(F)(F)F)c1 [compound 15]

isoTOP-ABPP ratio (reactivity profile), P48735_C308 (IDH2 C308 (P48735)): 0.6
isoTOP-ABPP ratio (reactivity profile), Q15306_C194 (IRF4 C194 (Q15306)): 1.7
isoTOP-ABPP ratio (reactivity profile), P68036_C86 (UBE2L3 C86 (P68036); 500 μm in-vitro ramos): 2.0
isoTOP-ABPP ratio (reactivity profile), P68036_C86 (UBE2L3 C86 (P68036); 500 μm in-vitro ramos_231): 1.2
isoTOP-ABPP ratio (reactivity profile), P16455_C150 (MGMT C150 (P16455)): 17.2
Compound: O=C(CCl)NC12CC3CC(CC(C3)C1)C2 [compound 21]

isoTOP-ABPP ratio (reactivity profile), Q6L8Q7_C108 (PDE12 C108 (Q6L8Q7)): 1.0
isoTOP-ABPP ratio (reactivity profile), Q15306_C194 (IRF4 C194 (Q15306)): 1.9
isoTOP-ABPP ratio (reactivity profile), P68036_C86 (UBE2L3 C86 (P68036); 500 μm in-vitro ramos): 13.2
isoTOP-ABPP ratio (reactivity profile), P68036_C86 (UBE2L3 C86 (P68036); 500 μm in-vitro ramos_231): 7.4
isoTOP-ABPP ratio (reactivity profile), P16455_C150 (MGMT C150 (P16455)): 1.0
Compound: N#C/C(=C\c1cc(C(F)(F)F)cc(C(F)(F)F)c1)C(N)=O [compound 23]
